Test results reported in US7276050B2, “Trans-scleral drug delivery method and apparatus” (priority 2004, dated 2007).

Key:
[1] = system: hyperoxia-induced ocular neovascularization; experiment: Mouse pup model of hyperoxia-induced ocular neovascularization; format: in vivo
Text: Testing of CAI in a mouse pup model of hyperoxia-induced ocular neovascularization, in which posterior retinal ischemia mediates of pathological angiogenesis, has confirmed that CAI is a potent inhibitor of ocular angiogenesis in this model.

[2] = cited from earlier work
[3] = Trans-scleral diffusion in 2 chamber perfusion apparatus (HPLC readout); format: in vitro ADME, human
Text: Scleral tissue was obtained from 23 human donor eyes (Georgia Eye Bank, Atlanta) and was stored in moist chambers for 2-6 days post-mortem. The mean age at time of death (±SE) for the donor tissue used in this study was 52.4±4.4 years. Scleral tissue was dissected from the superotemporal quadrant of each eye to minimize associated structures that can modify scleral permeability such as vortex veins, posterior ciliary arteries, and anterior ciliary vessels. Uveal tissue and episclera were carefully removed using a cotton-tip applicator. The sclera was mounted horizontally in a 2 chamber acrylic perfusion apparatus (FIG. 1). The uveal surface was apposed to the lower flow-through hemi-chamber (volume 500 μL) containing balanced salt solution (BSS, Alcon laboratories, Ft. Worth, Tex.). The test solution was applied to the episcleral surface. Since CAI has a 423 Da molecular weight and the molecule is hydrophobic with a solubility of 1-10 μM in water, three different test solutions that contained carboxyamido-triazole were evaluated: CAI in 20% DMSO (80% BSS vol/vol) at a concentration (mean±SE) of 15.2±3.0 μM (solution A), CAI in 10% DMSO (90% BSS) at a concentration of 4.1±0.4 μM (solution B), and CAI in 10% ethanol (90% BSS) at a concentration of 3.3±0.2 μM (solution C).
The BSS in the lower hemi-chamber was perfused at a rate of 0.03 ml/min. The perfusion apparatus was placed on a magnetic stir plate and mixing in the lower hemi-chamber was achieved using a stir bar. The upper hemi-chamber containing the test compound was covered with parafilm and sealed with silicone grease to prevent evaporation. This also provided a flexible seal so that trans-scleral pressure would not be altered. The temperature of the apparatus was maintained at 37° C. by a water jacket with circulating water bath.
A physiologic pressure of 15 mm Hg was applied across the sclera by raising the height of the outflow tube of the receptor (lower-) chamber to 22 cm. A pressure transducer that was connected to the lower hemi-chamber verified the pressure. For all three solutions that contained carboxyamido-triazole 100 μl was applied to the episcleral side and samples of perfusate were collected at the uveal side of the sclera at time zero and at 30-minute intervals for the duration of 8 hours. The scleral permeability to CAI in a 10% ethanol solution was also evaluated over a longer period of 24 hours of which samples were taken hourly. For the 24 hours experiments 500 μl of the test solution was added to the upper hemi-chamber to minimize depletion of the drug on the donor side.
From each sample obtained from the trans-scleral diffusion experiments an aliquot of 100 μl was taken and the concentrations of CAI were monitored by reverse-phase high-performance liquid chromatography (HPLC). Results were calculated on the basis of peak areas. Samples were analyzed by using a Hewlett Packard HP1100 HPLC system equipped with a UV detector, an auto-sampler, a pump, and a HP Kayak workstation that controls the operation of HPLC and analyzes the data. A Zorbak Rx-C8 column (4.6×250 mm) was used for separation and detection was set at 260 nm. The flow rate employed was 1.0 ml/min with mobile phase of 55% acetonitrile and 45% water. The injection volume was 100 μl and retention time of CAI was about 7.8 minutes.
Steady state permeability constants were calculated from the data as: Ktrans=[Rtotal/(t)(A)]×1/[D]
Where Rtotal is the amount of drug in the receiver effluent per collected fraction, and t is the fraction collection time (in seconds). A is the area of exposed sclera (in square centimeters). This value—Rtotal/(t)(A)—is equal to the flux across the tissue. D is the concentration of drug in the donor hemi-chamber. Permeability thus represents the steady state flux normalized by donor concentration. The area of exposed sclera was 0.385 cm2. Mean steady state permeability values (±SE) were calculated from four to eight experiments performed for each compound.

[4] = Transmission electron microscopy of sclera after diffusion experiments; parameters: species or system human; details: after diffusion experiments with CAI in all three test solutions
Experimental: At the end of the trans-scleral diffusion experiments with CAI (DMSO 10%, 20%, and ethanol 10%) and 2ME2 (1% DMSO) the scleral tissue was fixed in 2.5% glutaraldehyde in 0.1 M sodium cacodylate buffer and prepared for transmission electron microscopy (TEM). The scleral tissue was bisected and postfixed in 2% osmium tetroxide for 2 hours. Small pieces of the sclera were embedded in low-viscosity epoxy medium, thin sectioned, stained with uranyl acetate and lead citrate, and viewed with a JEOL 100 CX transmission electron microscope. The micrographs were taken at X 2850.

[5] = mouse pup, hyperoxia-induced ocular neovascularization

NC(=O)c1nnn(Cc2cc(Cl)c(C(=O)c3ccc(Cl)cc3)c(Cl)c2)c1N [CAI, Carboxyamido-triazole]
intracellular bcl-2 (immunohistochemistry) ([1]; ischemic inner plexiform layer, mouse pup model): up regulation of intracellular bcl-2 | formation of neovascular fronds [1, 5]: nearly completely abolished formation of neovascular fronds | regression of preformed neovascular fronds [1, 5]: dramatic and significant regression of preformed neovascular fronds | solubility in water [2]: 1 to 10 µM | diffusion across the sclera [3]: diffused across the sclera effectively | time at which semi-steady state flux was observed ([3]; human, 3.3 μM): 13 h | time to reach steady state ([3]; human, 4.1 μM): 6 h | time to reach semi-steady state ([3]; human, 15.2 μM): approximately 5 hours | Papp at 8 h, 15.2 μM ([3]; solution A: 15.2 μM CAI in 20% DMSO (80% BSS), human sclera, 37° C., 15 mm Hg, n=4, read-out: permeability constant (mean±SE)): 2.8 ×10⁻⁶ cm/s | Papp at 8 h, 4.1 μM ([3]; solution B: 4.1 μM CAI in 10% DMSO (90% BSS), human sclera, n=7, read-out: permeability constant (mean±SE)): 5.5 ×10⁻⁶ cm/s | Papp at 24 h, 3.3 μM ([3]; solution C: 3.3 μM CAI in 10% EtOH (90% BSS), 24 hour sampling, human sclera, n=4, read-out: permeability constant (mean±SE)): 4.16 ×10⁻⁶ cm/s | scleral ultrastructure by TEM [4]: normal ultrastructure within the sclera
